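Growth conditions: 96-well plates. Treatment: test compound, 48 hours, 5 concentrations. Analysis: linear interpolation between bracketing concentrations; unreached endpoints set to highest concentration. GI50: concentration for 50% inhibition of growth.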 Activity calls are given as the source filed them. Rule as the data show it: active = GI50 up to about 1.1 µM and inactive = higher.
How the values were obtained:
Experiment in all cases: NCI anticancer screen, dose series, 48 h
CCRF-CEM = tested on: CCRF-CEM
COLO 205 = tested on: COLO 205
DLD-1 = tested on: DLD-1
HCC 2998 = tested on: HCC 2998
HCT-116 = tested on: HCT-116
HOP-62 = tested on: HOP-62
HT-29 = tested on: HT-29
K562 = tested on: K562
MOLT-4 = tested on: MOLT-4
Malme-3M = tested on: Malme-3M
SF-268 = tested on: SF-268
SN12C = tested on: SN12C
TK-10 = tested on: TK-10
U-251 = tested on: U-251
UACC-62 = tested on: UACC-62
BT-549 = tested on: BT-549
MDA-MB-231 = tested on: MDA-MB-231
MDA-MB-435 = tested on: MDA-MB-435
MDA-N = tested on: MDA-N
T47D = tested on: T47D

Measured: GI50

Cc1cc(-c2ccccc2)nc(Nc2cc3ccccc3[nH]2)n1
inactive: CCRF-CEM > 100 µM | COLO 205 > 100 µM | DLD-1 > 100 µM | HCC 2998 > 100 µM | HCT-116 > 100 µM | HOP-62 > 100 µM | HT-29 > 100 µM | K562 > 100 µM | MOLT-4 > 100 µM | Malme-3M > 100 µM | SF-268 > 100 µM | SN12C > 100 µM | TK-10 > 100 µM | U-251 > 100 µM | UACC-62 > 100 µM

O=C(CC1(O)C(=O)Nc2ccccc21)c1ccc(O)cc1 (centres undefined)
inactive: CCRF-CEM > 100 µM | COLO 205 > 100 µM | DLD-1 > 100 µM | HCC 2998 > 100 µM | HCT-116 > 100 µM | HOP-62 > 100 µM | HT-29 > 100 µM | K562 > 100 µM | MOLT-4 > 100 µM | Malme-3M > 100 µM | SF-268 > 100 µM | SN12C > 100 µM | TK-10 > 100 µM | U-251 > 100 µM | UACC-62 > 100 µM

O=C1c2ccccc2C(=O)c2c1ccc1c3ccccc3n(-c3ccccc3)c21
inactive: BT-549 25.7 µM | CCRF-CEM 2.85 µM | COLO 205 16.9 µM | DLD-1 17.1 µM | HCC 2998 46.6 µM | HCT-116 19.7 µM | HOP-62 49.5 µM | HT-29 16.7 µM | K562 6.61 µM | MDA-MB-231 22.4 µM | MDA-MB-435 9.31 µM | MDA-N 25 µM | MOLT-4 2.3 µM | Malme-3M 28.7 µM | SF-268 23 µM | SN12C 17.8 µM | T47D 14.6 µM | TK-10 40.8 µM | U-251 32.7 µM | UACC-62 14.7 µM

CCOC(=O)C(C)N1C(=O)c2ccccc2S1(=O)=O (centres undefined)
inactive: CCRF-CEM > 100 µM | COLO 205 > 100 µM | DLD-1 > 100 µM | HCC 2998 > 100 µM | HCT-116 > 100 µM | HOP-62 > 100 µM | HT-29 > 100 µM | K562 > 100 µM | MOLT-4 > 100 µM | Malme-3M > 100 µM | SF-268 > 100 µM | SN12C > 100 µM | U-251 > 100 µM | UACC-62 > 100 µM

CCCCSC(=CC(=O)c1cccc(C(=O)C=C(SCCCC)SCCCC)n1)SCCCC
inactive: CCRF-CEM > 100 µM | COLO 205 > 100 µM | DLD-1 > 100 µM | HCC 2998 > 100 µM | HCT-116 > 100 µM | HOP-62 > 100 µM | HT-29 > 100 µM | K562 > 100 µM | MOLT-4 > 100 µM | Malme-3M > 100 µM | SF-268 > 100 µM | SN12C > 100 µM | TK-10 > 100 µM | U-251 > 100 µM | UACC-62 > 100 µM

COC(=O)c1c(C(=O)OC)c(-c2ccccc2)n(-c2ccccc2)c(=O)c1-c1ccccc1
inactive: CCRF-CEM > 100 µM | COLO 205 > 100 µM | DLD-1 66.5 µM | HCC 2998 > 100 µM | HCT-116 58.7 µM | HOP-62 27.6 µM | HT-29 > 100 µM | K562 > 100 µM | MOLT-4 > 100 µM | Malme-3M 61.2 µM | SF-268 55.7 µM | SN12C > 100 µM | TK-10 > 100 µM | U-251 42.9 µM | UACC-62 61 µM

Reference: ChEMBL document CHEMBL1201862, “PubChem BioAssay data set” (2004)
